Experimental data published in patent US8215314B2, “Photochemical tissue bonding” (The General Hospital Corporation, priority 2000, dated 2012).
Entries after “also recorded” stand apart in the source; their conditions may differ.

Tests used:
bovine achilles tendons = assay: PTB of ruptured bovine achilles tendons in vitro, ultimate stress and stiffness; conditions: for Mean change in stiffness % (95% CI) / Mean change in ultimate stress % (95% CI): relative to healthy tendon
Description: To test the ability of PTB to quickly and effectively bond ruptured tendons, an in vitro model utilizing bovine tendons was developed. The use of bovine models in wound healing is well known by those skilled in the art. The similarities between bovine wound healing and that of humans enables one to extrapolate the therapeutic results obtained in a bovine model system to a therapeutic result in humans.
Fresh bovine achilles tendons were obtained and stored at […] until use. The tendon was cut into dumbbell-shaped 5 cm strips with the central 3 cm strip at an approximate cross-sectional area of 1 mm by 1 mm, and were irrigated constantly with phosphate buffered saline (PBS) to prevent desiccation.
Rupture of the tendon was induced by weakening the central 1 cm of the tendon with a surgical blade and mechanically pulling it apart. A solution of Rose Bengal at various concentrations (0.1, 0.5 and 1.0% weight per volume in PBS) was applied to the ends of the ruptured tendons for two minutes, after which the ruptured ends were approximated and the excess dye was removed.
The ruptured ends of the tendon were crossed over each other with an overlap of approximately 1 cm before being wrapped by several layers of tissue paper. The tissue wrapped tendon was rolled and pressed in order to approximate the ruptured ends and remove the excess dye. The tissue paper was carefully removed before the tendon was placed between two glass slides that were then clipped together.
The center of the approximated tendon was irradiated with an argon laser (514 nm), having a spot size of 1 cm in diameter, which was transmitted through an optic fiber. The laser was applied with an irradiance of 0.5, 1.0, or 1.5 W/cm^2, while the fluence of laser energy applied was 125, 250, 500, or 750 J/cm^2. The exposure time ranged from 1 min and 23 seconds to 25 minutes.
Control tendons were ruptured in the same manner, however treatments consisted of application of Rose Bengal and approximation of the tendon ends without laser irradation, approximation of the tendon ends with laser irradiation but no exposure to rose bengal, and approximation of the ends with no further treatment.
To test the effectiveness of the photochemical tissue bonding, immediately after photochemical tissue bonding, the tendon strips were attached to the fixture of a tensiometer, which was coupled to a force transducer (FIG. 17). The tendon was held at a straight and vertical position, and cyclic loading of the tendon was conducted by stretching the tendon for a magnitude of 0.5 mm for 6 cycles. The tendon was brought back to a zero deflection position before being pulled to failure at a constant speed of 100 mm/min. The peak force needed to rupture the tendon was recorded, and a typical force-deflection curve was obtained (FIG. 18). The ultimate stress and stiffness (peak force for tendon rupture normalized by the cross-sectional area, and slope of the linear region of the force-deflection curve, respectively) were calculated from the force-deflection curve.
Healthy tendons were also placed in the tensiometer, and were pulled to the point of failure. Following failure, they were treated with photochemical tissue bonding at 500 J/cm^2 fluence and again pulled to failure to study the percentage of recovery of mechanical properties. Immediately after the photochemical tissue bonding, the ultimate stress and the stiffness returned to approximately 59.66% and 52.75% of the healthy tendon, respectively (Table 1).

[1] = test system: collagen gel implant on rat latissimus dorsi muscle flap; assay: Adherence of collagen-based esophagus implant to host muscle flap after PTB, ex vivo; conditions: for adherence of collagen implant on muscle flap: 0.1% RB, 514 nm
Description: An ex vivo experimental system was developed to investigate the effect of PTB on the bonding of an engineered, collagen-based, esophagus implant to host muscle flap tissue without the need for silicon tubing.
FIG. 14 provides an overview of the experimental methods. Esophageal keratinocytes were seeded on uncontracted collagen gel (ICN Biomedicals) for about one week until confluence was reached. A 1×1 cm piece of seeded collagen gel was removed (implant) from the culture dish and a suture loop was laced through at its edge. An equivalently-sized section of rat latissimus dorsi muscle flap was secured onto a flat plastic surface with sutures. Rose bengal (RB) at 0.1% (w/v), a photosensitizer having an absorption maximum and absorption coefficient of 550 nm and 33,000 dm^3/mo/cm at 514 nm, respectively, was applied to the collagen side of the implant and the surface of the muscle flap and incubated for about two minutes. The esophagus implant and the muscle flap were approximated with the dye-treated surfaces facing each other by gently pressing over the esophagus implants without damaging the keratinocyte layer. Excess dye was removed by aspiration and blotting. […]
Following irradiation, the adherence of the collagen-based esophageal implant to the host muscle flap was tested for the 50 J/cm^2 sample, 100 J/cm^2 sample, and the three controls, using a tensiometer (Chartillon) coupled to a force transducer (DFA2, Ametek). The adherence (N/cm^2; N=force applied, cm^2=area of collagen implant) of the collagen implant on the muscle flap was determined from the force-deflection curve, generated by plotting the amount of peeling force applied to the collagen implant to the force plate displacement level of the force transducer. It was observe that the mean adherence measurements determined for the negative, RB, and laser controls were 0.05, 0.06, and 0.07 N/cm^2, respectively (FIG. 15). In contrast, the adherence measurements determined for the 50 and 100 J/cm^2 composite samples were 0.15 and 0.13 N/cm^2, respectively (FIG. 15).

[2] = argon laser 514 nm and Rose Bengal
[3] = higher Rose Bengal concentrations (0.0, 0.1, 0.5, 1.0% w/v in PBS)

SMILES: O=C([O-])c1c(Cl)c(Cl)c(Cl)c(Cl)c1-c1c2cc(I)c(=O)c(I)c-2oc2c(I)c([O-])c(I)cc12.[Na+].[Na+] [Rose Bengal]
- dehydration of the tendon (bovine achilles tendons; 1.0% Rose Bengal): dehydration of the tendon was noticed
- Mean change in stiffness % (95% CI) (bovine achilles tendons; Dye control (dye, no laser)): 20.65 (10.16, 31.14) %
- Mean change in ultimate stress % (95% CI) (bovine achilles tendons; Dye control (dye, no laser)): 24.18 (6.57, 41.79) %
- Mean change in stiffness % (95% CI) (bovine achilles tendons; Laser + Dye, 500 J/cm^2): 52.75 (24.05, 81.45) %
- Mean change in ultimate stress % (95% CI) (bovine achilles tendons; Laser + Dye, 500 J/cm^2): 59.66 (8.71, 110.61) %
- stiffness of ruptured tendon vs controls (bovine achilles tendons; [2]): significantly increased; also recorded: significant increase
- ultimate stress of ruptured tendon vs controls (bovine achilles tendons; [2]): significantly increased; also recorded: significant increase
- stiffness of ruptured tendon (bovine achilles tendons; [3]): significant increase
- ultimate stress of ruptured tendon (bovine achilles tendons; [3]): significant increase
- adherence of collagen implant on muscle flap ([1]; 0.25 W/cm^2, 50 J/cm^2): 0.15 N/cm^2
- adherence of collagen implant on muscle flap ([1]; 0.25 W/cm^2, 100 J/cm^2): 0.13 N/cm^2
- mean adherence of collagen implant on muscle flap ([1]; RB control: 0.1% RB treated, nonirradiated): 0.06 N/cm^2
